# From patent US11046684B2, “Compound for selectively inhibiting kinase and use thereof” (SHANGHAI ZHEYE BIOTECHNOLOGY LIMITED-LIABILITY COMPANY, priority 2017, dated 2021)
# How the values were obtained:
# [1] = molecular target: T1, FGFR2 kinase recombinant protein (Homo sapiens, UniProt P21802); assay: Inhibition of FGFR kinase activity, ADP-Glo method; assay type: biochemical; conditions: 30 min preincubation
# T1 construct: purchased Promega
# Description: (§1) The inhibitory activities of the test substances on FGFR kinase were determined by the ADP-Glo method. The human FGFR1, FGFR2 and FGFR4 kinase recombinant proteins and kinase activity assay kit ADP-Glo™ were purchased from Promega, and the FGFR3 kinase recombinant protein was purchased from BPS Bioscience. The test substance, which was diluted gradiently from 1000 nM, was incubated with the FGFR1, FGFR2, FGFR3 or FGFR4 kinase recombinant protein for 30 minutes, reacted with the substrate in the presence of ATP, and ADP-Glo™ detected the generated ADP and further produced chemiluminescence signals. Microplate reader (Perkin Elmer, Envision) were used to determine the reading for each well, and the origin 7.5 was used to calculate and analyze the IC50, i.e. the concentration at which 50% inhibition occurred.
# (§2) The inhibition of the compounds of the present invention on FGFR1-4 kinase activity was measured by the above test, and the measured IC50 (nM) values are shown in Table 1.
# [2] = molecular target: T2, FGFR1 kinase recombinant protein (Homo sapiens, UniProt P11362); assay: Inhibition of FGFR kinase activity, ADP-Glo method; assay type: biochemical; conditions: 30 min preincubation
# T2 construct: purchased Promega
# T2 sequence (P11362 22-822): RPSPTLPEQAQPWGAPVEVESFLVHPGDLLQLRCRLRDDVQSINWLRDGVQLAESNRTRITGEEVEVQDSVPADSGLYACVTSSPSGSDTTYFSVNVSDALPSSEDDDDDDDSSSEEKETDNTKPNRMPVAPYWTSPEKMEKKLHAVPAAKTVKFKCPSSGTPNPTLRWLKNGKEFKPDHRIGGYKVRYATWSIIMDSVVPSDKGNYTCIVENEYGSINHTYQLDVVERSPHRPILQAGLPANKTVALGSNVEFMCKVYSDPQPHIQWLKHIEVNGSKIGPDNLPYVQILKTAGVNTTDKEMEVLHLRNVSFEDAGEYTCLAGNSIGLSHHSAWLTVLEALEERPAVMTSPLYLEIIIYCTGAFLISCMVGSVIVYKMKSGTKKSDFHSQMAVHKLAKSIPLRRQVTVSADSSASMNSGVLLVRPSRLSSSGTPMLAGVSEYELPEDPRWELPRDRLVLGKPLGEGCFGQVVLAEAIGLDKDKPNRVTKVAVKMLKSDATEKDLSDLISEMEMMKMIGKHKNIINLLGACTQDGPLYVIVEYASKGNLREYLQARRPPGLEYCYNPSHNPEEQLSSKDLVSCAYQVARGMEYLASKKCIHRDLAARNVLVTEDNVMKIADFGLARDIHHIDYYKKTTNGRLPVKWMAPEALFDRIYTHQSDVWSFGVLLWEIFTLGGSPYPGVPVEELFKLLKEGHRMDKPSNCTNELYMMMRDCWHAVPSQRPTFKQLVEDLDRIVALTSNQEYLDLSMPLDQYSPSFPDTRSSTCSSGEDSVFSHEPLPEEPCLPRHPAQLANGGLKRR
# Description: as §1, §2
# [3] = molecular target: T3, FGFR4 kinase recombinant protein (Homo sapiens, UniProt P22455); assay: Inhibition of FGFR kinase activity, ADP-Glo method; assay type: biochemical; conditions: 30 min preincubation
# T3 construct: purchased Promega
# T3 sequence (P22455 22-802): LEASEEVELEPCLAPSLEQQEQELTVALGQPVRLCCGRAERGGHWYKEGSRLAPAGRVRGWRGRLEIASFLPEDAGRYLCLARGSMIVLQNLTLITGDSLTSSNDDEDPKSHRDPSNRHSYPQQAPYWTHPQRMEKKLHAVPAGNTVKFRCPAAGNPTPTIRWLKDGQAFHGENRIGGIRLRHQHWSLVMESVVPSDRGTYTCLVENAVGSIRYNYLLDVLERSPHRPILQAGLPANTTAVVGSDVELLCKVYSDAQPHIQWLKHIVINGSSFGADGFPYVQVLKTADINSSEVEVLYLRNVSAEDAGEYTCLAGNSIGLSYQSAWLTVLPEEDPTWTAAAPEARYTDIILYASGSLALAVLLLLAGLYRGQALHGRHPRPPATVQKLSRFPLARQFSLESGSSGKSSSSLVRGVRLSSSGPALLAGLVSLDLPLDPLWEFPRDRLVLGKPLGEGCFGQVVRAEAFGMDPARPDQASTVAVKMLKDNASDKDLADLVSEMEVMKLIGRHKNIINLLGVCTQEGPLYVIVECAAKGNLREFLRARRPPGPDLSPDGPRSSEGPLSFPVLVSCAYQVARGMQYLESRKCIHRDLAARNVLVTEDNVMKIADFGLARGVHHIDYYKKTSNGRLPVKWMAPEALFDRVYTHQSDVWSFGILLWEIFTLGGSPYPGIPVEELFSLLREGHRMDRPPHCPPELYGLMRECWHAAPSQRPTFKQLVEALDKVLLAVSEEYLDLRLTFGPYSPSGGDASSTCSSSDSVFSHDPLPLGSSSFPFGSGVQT
# Description: as §1, §2
# [4] = molecular target: T4, FGFR3 kinase recombinant protein (Homo sapiens, UniProt P22607); assay: Inhibition of FGFR kinase activity, ADP-Glo method; assay type: biochemical; conditions: 30 min preincubation
# T4 construct: purchased BPS Bioscience
# T4 sequence (P22607 23-806): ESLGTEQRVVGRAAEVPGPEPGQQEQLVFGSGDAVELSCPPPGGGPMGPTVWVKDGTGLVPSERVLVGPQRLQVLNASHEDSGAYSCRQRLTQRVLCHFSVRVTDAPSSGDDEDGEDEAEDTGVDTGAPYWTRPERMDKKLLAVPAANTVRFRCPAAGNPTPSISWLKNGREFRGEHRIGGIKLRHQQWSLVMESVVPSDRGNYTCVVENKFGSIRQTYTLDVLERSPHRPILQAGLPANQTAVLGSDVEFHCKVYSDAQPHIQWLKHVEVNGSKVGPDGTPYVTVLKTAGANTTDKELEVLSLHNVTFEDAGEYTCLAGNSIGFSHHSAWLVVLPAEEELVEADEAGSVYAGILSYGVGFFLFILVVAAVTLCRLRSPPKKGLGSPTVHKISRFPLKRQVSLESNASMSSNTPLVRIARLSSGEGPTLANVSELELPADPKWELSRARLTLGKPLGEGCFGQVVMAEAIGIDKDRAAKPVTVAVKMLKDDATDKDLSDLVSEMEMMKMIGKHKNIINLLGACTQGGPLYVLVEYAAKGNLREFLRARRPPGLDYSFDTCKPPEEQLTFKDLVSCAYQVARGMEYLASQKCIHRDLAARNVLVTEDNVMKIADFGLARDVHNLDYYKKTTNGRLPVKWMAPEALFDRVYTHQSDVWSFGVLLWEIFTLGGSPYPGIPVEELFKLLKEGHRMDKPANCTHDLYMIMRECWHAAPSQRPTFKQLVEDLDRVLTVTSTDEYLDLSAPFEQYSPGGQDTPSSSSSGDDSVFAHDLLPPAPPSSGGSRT
# Description: as §1, §2
# HUH-7 = assay: HCC cell proliferation inhibition, SRB method; assay type: cell-based; conditions: Homo sapiens, 72 hours
# Description: (§3) The inhibitory activities of the compounds of the examples on cell proliferation in vitro were tested using five hepatocellular carcinoma cell lines: Hep3B, Huh7, JHH-7, SK-hep-1, SNU423. The above cells were all from ATCC (American Type Culture Collection). Among them, Hep3B, Huh-7, JHH-7 these three cell lines all have FGF19 gene amplification (increased copy number) and increased mRNA expression level, as well as high level expression of FGFR4 and KLB gene mRNA; SK-hep-1, SNU423 cell lines have no FGF19 gene amplification and the expression level of FGF19 mRNA was very low (Barretina J, Caponigro G, et al. Nature 2012; 483: 603-7.).
# (§4) Cell proliferation was measured using the SRB (Sulforhodamine-B, sulforhodamine B) method. The cells were cultured to a cell fusion of more than 90% and then trypsinized. After counting, the cells were inoculated into 96-well plates at 6000 cells/well. After adherent culture overnight, the test compound was dissolved in DMSO and diluted with complete medium, added to the culture wells to form a 5-fold dilution of 10 concentration gradients from 10 μM. The cells were incubated for further 72 hours, 50 μl of 50% trichloroacetic acid was added to each well and fixed at 4° C. for 1 hour. The trichloroacetic acid in each well was discarded and washed 5 times with 300 μl of double distilled water. After drying at room temperature, 50 μl of 0.4% SRB dye solution (1% acetic acid/0.4% SRB) was added to each well to react for 15 min. The dye solution of each well was discarded, washed 6-7 times with 1% acetic acid, and dried at room temperature. 200 μl of 10 mM Tris solution (pH=10.5) was added to each well and shaken until the solution was clear. The absorbance at 490 nm of each well was measured by a microplate reader. The reading of the wells where the concentration of the test compound was 0 was used as a control, and fitted with Origin 7.5 software, the IC50 value (nM) of the test substance for inhibiting cell proliferation was calculated.
# (§5) The antitumor cell proliferation activities of the compounds of the present invention were measured by the above test, and the measured IC50 (nM) values are shown in Table 2.
# SK-hep-1 = assay: HCC cell proliferation inhibition, SRB method; assay type: cell-based; conditions: Homo sapiens, SK-HEP1, 72 hours
# Description: as §3, §4, §5
# Hep3B = assay: HCC cell proliferation inhibition, SRB method; assay type: cell-based; conditions: Homo sapiens, 72 hours
# Description: as §3, §4, §5
# SNU387 = assay: HCC cell proliferation inhibition, SRB method; assay type: cell-based; conditions: Homo sapiens, SNU-387, 72 hours
# Description: [Worded in the source for another cell line; this cell line is reported under the same test.] as §3, §4, §5
# JHH-7 = assay: HCC cell proliferation inhibition, SRB method; assay type: cell-based; conditions: JHH7, 72 hours
# Description: as §3, §4, §5
# [5] = test system: HCC cells with FGF19 gene amplification; assay: HCC cell line panel proliferation, selectivity conclusion; assay type: cell-based; conditions: conclusion from Table 2
# Description: as §3, §4
# [6] = test system: Hep3B transplantation tumor; assay: HCC cell subcutaneous transplantation tumor growth inhibition test in nude mice; assay type: in vivo; conditions: for growth inhibition of the transplantation tumor: 50 mg/kg, intragastric, BID 21 days, Hep3B nude mice; for adverse reactions (water and food take, activity, body weight) during administration: all dose groups 50, 100, 150 mg/kg BID, 21 days, tumor-bearing nude mice
# Description: The Hep3B cells in the logarithmic growth phase were cultured and collected, and subcutaneously inoculated into the right back of nude mice (female Balb/c Nude mice, from Beijing Vitalriver) at 1×10^7 cells/mouse. When the tumor grew to 50-300 mm^3, tumor-bearing nude mice were randomly grouped, 6 animals per group. Subsequently, each group of animals was administered at the following dose, and the day of the first dose was defined as the first day of the test.
# Blank solvent (ultra-pure water) control group, compound 1, compound 2 were respectively set to 50 mg/kg, 100 mg/kg, 150 mg/kg three dose groups, intragastric administration, twice a day (BID), for 21 consecutive days. The state of the animals was observed daily during the administration; the body weight was measured once a week before the first administration; and the body weight was measured twice a week after the start of the administration. The size of the transplantation tumor was measured every 3 days after the start of administration. Tumor volume (TV)=½×a×b^2, wherein, a and b represent the length and width of the tumor, respectively. The relative tumor volume (RTV) was calculated based on the measured results, RTV=Vt/V0×100, wherein V0 is the measured tumor volume on the day of the cage (i.e., day 0), and Vt is the tumor volume at each measurement.
# After establishing the Hep3B nude mice transplantation tumor model according to the method described above, the mice were divided into three groups and intragastrically administered with a blank solvent (ultra-pure water) control, compound 1 (15 mg/kg, BID), sorafenib (prepared according to the method described in the literature CN1721397A and identified) respectively, 30 mg/kg, once a day (QD), for 21 consecutive days. The growth inhibition on the transplantation tumor of the test substances, animal status and body weight were evaluated in the same manner as above. The tumor volume (TV) was measured and the tumor inhibition rate was calculated according to the tumor inhibition rate (TGI)=(1−T/C)×100%. C: average tumor volume of the control group; T: average tumor volume of the administration group.
# T1 sequence (P21802 22-821): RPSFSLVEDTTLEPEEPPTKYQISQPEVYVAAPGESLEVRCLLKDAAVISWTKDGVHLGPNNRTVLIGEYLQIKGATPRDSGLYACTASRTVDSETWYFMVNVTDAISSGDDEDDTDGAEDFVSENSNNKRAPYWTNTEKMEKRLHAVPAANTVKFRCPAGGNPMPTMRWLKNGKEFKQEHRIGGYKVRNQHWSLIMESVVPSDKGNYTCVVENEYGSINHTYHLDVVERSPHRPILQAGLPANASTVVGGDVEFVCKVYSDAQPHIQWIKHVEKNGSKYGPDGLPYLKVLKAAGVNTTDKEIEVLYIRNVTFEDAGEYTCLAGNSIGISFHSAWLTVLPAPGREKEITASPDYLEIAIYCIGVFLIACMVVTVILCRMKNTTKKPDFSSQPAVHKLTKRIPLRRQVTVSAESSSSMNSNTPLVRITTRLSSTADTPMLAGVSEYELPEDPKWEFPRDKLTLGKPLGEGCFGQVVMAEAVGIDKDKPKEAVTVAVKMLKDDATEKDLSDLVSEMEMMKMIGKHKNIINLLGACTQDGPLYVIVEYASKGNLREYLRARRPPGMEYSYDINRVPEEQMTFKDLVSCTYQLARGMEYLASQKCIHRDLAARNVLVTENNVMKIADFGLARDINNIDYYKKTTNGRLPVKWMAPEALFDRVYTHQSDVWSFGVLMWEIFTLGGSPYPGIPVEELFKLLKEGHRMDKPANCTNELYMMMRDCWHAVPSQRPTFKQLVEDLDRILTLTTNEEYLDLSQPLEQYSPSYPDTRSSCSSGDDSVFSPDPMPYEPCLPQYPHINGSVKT
SMILES,IC50 [1] [nM],IC50 [2] [nM],IC50 [3] [nM],IC50 [4] [nM],IC50 (HUH-7) [nM],IC50 (SK-hep-1) [nM],IC50 (Hep3B) [nM],IC50 (SNU387) [nM],IC50 (JHH-7) [nM],selective inhibitory effect on HCC cells with FGF19 gene amplification [5],growth inhibition of the transplantation tumor [6],"adverse reactions (water and food take, activity, body weight) during administration [6]","efficacy compared with sorafenib 30 mg/kg QD ([6]; compound 1 15 mg/kg BID, Hep3B nude mouse transplantation tumor model)"
C#CCNc1cc(NC(=O)N2CCCc3cc(CN4CCN(C)CC4=O)c(C=O)nc32)ncc1C#N [Compound 1],> 1000,> 1000,0.41,> 1000,4,> 1000,0.35,> 1000,3,significant selective inhibitory effect,significant,no adverse reactions occurred,superior to that of sorafenib
C#CCCNc1cc(NC(=O)N2CCCc3cc(CN4CCN(C)CC4=O)c(C=O)nc32)ncc1C#N [Compound 2],> 1000,> 1000,0.33,> 1000,2.9,> 1000,0.4,> 1000,2.6,significant selective inhibitory effect,significant,no adverse reactions occurred,
C#CCCNc1cc(NC(=O)N2CCCc3cc(CN4CCOCC4=O)c(C=O)nc32)ncc1C#N [Compound 3],> 1000,> 1000,0.62,> 1000,5.7,,0.62,> 1000,,significant selective inhibitory effect,,,

# Further lines, with some results ahead:
IC50 [1] [nM],IC50 [2] [nM],IC50 [3] [nM],IC50 [4] [nM],IC50 (HUH-7) [nM],IC50 (SK-hep-1) [nM],IC50 (Hep3B) [nM],IC50 (SNU387) [nM],IC50 (JHH-7) [nM],SMILES,selective inhibitory effect on HCC cells with FGF19 gene amplification [5],growth inhibition of the transplantation tumor [6],"adverse reactions (water and food take, activity, body weight) during administration [6]","efficacy compared with sorafenib 30 mg/kg QD ([6]; compound 1 15 mg/kg BID, Hep3B nude mouse transplantation tumor model)"
> 1000,> 1000,0.37,> 1000,2.8,,0.36,> 1000,,[2H]C([2H])([2H])N1CCN(Cc2cc3c(nc2C=O)N(C(=O)Nc2cc(NCCC#C)c(C#N)cn2)CCC3)C(=O)C1 [Compound 4],significant selective inhibitory effect,,,
> 1000,> 1000,0.59,> 1000,4.9,,0.53,> 1000,,C#CCCCNc1cc(NC(=O)N2CCCc3cc(CN4CCN(C)CC4=O)c(C=O)nc32)ncc1C#N [Compound 6],significant selective inhibitory effect,,,
